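Abbreviation: GI50, concentration required for 50% inhibition of growth. The concentration for full growth arrest is given as TGI.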
How the values were obtained:
Test in all cases: NCI anticancer screen, dose series, 384-well format
HS 578T breast = system: HS 578T breast
T-47D breast = system: T-47D breast
OVCAR-5 ovarian = system: OVCAR-5 ovarian
HOP-62 NSCLC = system: HOP-62 NSCLC
MDA-MB-231 breast = system: MDA-MB-231 breast
U251 glioblastoma = system: U251 glioblastoma
RXF 393 renal = system: RXF 393 renal
HL-60(TB) leukemia = system: HL-60(TB) leukemia
TK-10 renal = system: TK-10 renal
PC-3 prostate = system: PC-3 prostate
MOLT-4 leukemia = system: MOLT-4 leukemia
M14 melanoma = system: M14 melanoma
SN12C renal = system: SN12C renal
SK-MEL-28 melanoma = system: SK-MEL-28 melanoma
OVCAR-4 ovarian = system: OVCAR-4 ovarian
UACC-257 melanoma = system: UACC-257 melanoma
NCI-H23 lung = system: NCI-H23 lung
SF-295 CNS = system: SF-295 CNS
OVCAR-8 ovarian = system: OVCAR-8 ovarian
NCI-H226 lung = system: NCI-H226 lung
HCC-2998 colon = system: HCC-2998 colon
KM12 colon = system: KM12 colon
RPMI-8226 leukemia = system: RPMI-8226 leukemia
HCT-15 colon = system: HCT-15 colon
SK-OV-3 ovarian = system: SK-OV-3 ovarian
A549 NSCLC = system: A549 NSCLC
SNB-75 CNS = system: SNB-75 CNS
EKVX NSCLC = system: EKVX NSCLC
LOX IMVI melanoma = system: LOX IMVI melanoma
SR leukemia = system: SR leukemia
OVCAR-3 ovarian = system: OVCAR-3 ovarian
SF-539 CNS = system: SF-539 CNS
SNB-19 CNS = system: SNB-19 CNS
NCI-H460 NSCLC = system: NCI-H460 NSCLC
SK-MEL-5 melanoma = system: SK-MEL-5 melanoma
CAKI-1 renal = system: CAKI-1 renal
HOP-92 NSCLC = system: HOP-92 NSCLC
NCI/ADR-RES ovarian = system: NCI/ADR-RES ovarian
HT29 colon = system: HT29 colon
HCT-116 colon = system: HCT-116 colon
MCF7 breast = system: MCF7 breast
UACC-62 melanoma = system: UACC-62 melanoma
IGROV1 ovarian = system: IGROV1 ovarian
DU-145 prostate = system: DU-145 prostate
ACHN renal = system: ACHN renal
BT-549 breast = system: BT-549 breast
A498 renal = system: A498 renal
NCI-H522 lung = system: NCI-H522 lung
MDA-MB-435 melanoma = system: MDA-MB-435 melanoma
NCI-H322M lung = system: NCI-H322M lung
SF-268 CNS = system: SF-268 CNS
COLO 205 colon = system: COLO 205 colon
MALME-3M melanoma = system: MALME-3M melanoma

For COc1ccc(-c2cc3nccn3c(Nc3ncccc3C(N)=O)n2)cc1OC, the GI50 (HS 578T breast) was 1.31 µM, the TGI (HS 578T breast) was over 100 µM and the GI50 (T-47D breast) was over 100 µM. For the same molecule, the TGI (T-47D breast) was over 100 µM, the GI50 (OVCAR-5 ovarian) was 4.46 µM and the TGI (OVCAR-5 ovarian) was over 100 µM. The GI50 (HOP-62 NSCLC) was 0.784 µM, the TGI (HOP-62 NSCLC) was 71.4 µM and the GI50 (MDA-MB-231 breast) was over 100 µM. For the same molecule, the TGI (MDA-MB-231 breast) was over 100 µM, the GI50 (U251 glioblastoma) was 7.43 µM and the TGI (U251 glioblastoma) was over 100 µM. The GI50 (RXF 393 renal) was 2.36 µM, the TGI (RXF 393 renal) was 91 µM and the GI50 (HL-60(TB) leukemia) was 1.15 µM. The TGI (HL-60(TB) leukemia) was 3.05 µM, the GI50 (TK-10 renal) was 0.692 µM and the TGI (TK-10 renal) was over 100 µM. It also gave a GI50 (PC-3 prostate) of 2.17 µM, a TGI (PC-3 prostate) of over 100 µM and a GI50 (MOLT-4 leukemia) of 1.48 µM. It also gave a TGI (MOLT-4 leukemia) of 5.77 µM, a GI50 (M14 melanoma) of over 100 µM and a TGI (M14 melanoma) of over 100 µM. It also gave a GI50 (SN12C renal) of 0.819 µM, a TGI (SN12C renal) of over 100 µM and a GI50 (SK-MEL-28 melanoma) of over 100 µM. The TGI (SK-MEL-28 melanoma) was over 100 µM, the GI50 (OVCAR-4 ovarian) was over 100 µM and the TGI (OVCAR-4 ovarian) was over 100 µM. It also gave a GI50 (UACC-257 melanoma) of 91.7 µM, a TGI (UACC-257 melanoma) of over 100 µM and a GI50 (NCI-H23 lung) of 0.858 µM. It also gave a TGI (NCI-H23 lung) of over 100 µM, a GI50 (SF-295 CNS) of over 100 µM and a TGI (SF-295 CNS) of over 100 µM. The GI50 (OVCAR-8 ovarian) was 2.14 µM, the TGI (OVCAR-8 ovarian) was over 100 µM and the GI50 (NCI-H226 lung) was 6.52 µM. The TGI (NCI-H226 lung) was over 100 µM, the GI50 (HCC-2998 colon) was 46.6 µM and the TGI (HCC-2998 colon) was over 100 µM. It also gave a GI50 (KM12 colon) of 1.73 µM, a TGI (KM12 colon) of over 100 µM and a GI50 (RPMI-8226 leukemia) of 1.62 µM. For the same molecule, the TGI (RPMI-8226 leukemia) was over 100 µM, the GI50 (HCT-15 colon) was 0.677 µM and the TGI (HCT-15 colon) was over 100 µM. The GI50 (SK-OV-3 ovarian) was 0.571 µM, the TGI (SK-OV-3 ovarian) was over 100 µM and the GI50 (A549 NSCLC) was 17.9 µM. It also gave a TGI (A549 NSCLC) of over 100 µM, a GI50 (SNB-75 CNS) of over 100 µM and a TGI (SNB-75 CNS) of over 100 µM. The GI50 (EKVX NSCLC) was 17.9 µM, the TGI (EKVX NSCLC) was over 100 µM and the GI50 (LOX IMVI melanoma) was 0.461 µM. The TGI (LOX IMVI melanoma) was 4.31 µM, the GI50 (SR leukemia) was 0.129 µM and the TGI (SR leukemia) was 0.301 µM. For the same molecule, the GI50 (OVCAR-3 ovarian) was 2.36 µM, the TGI (OVCAR-3 ovarian) was over 100 µM and the GI50 (SF-539 CNS) was 4.82 µM. The TGI (SF-539 CNS) was over 100 µM, the GI50 (SNB-19 CNS) was 51.6 µM and the TGI (SNB-19 CNS) was over 100 µM. The GI50 (NCI-H460 NSCLC) was 0.555 µM, the TGI (NCI-H460 NSCLC) was 12.4 µM and the GI50 (SK-MEL-5 melanoma) was 0.567 µM. The TGI (SK-MEL-5 melanoma) was over 100 µM, the GI50 (CAKI-1 renal) was 0.392 µM and the TGI (CAKI-1 renal) was over 100 µM. It also gave a GI50 (HOP-92 NSCLC) of over 100 µM, a TGI (HOP-92 NSCLC) of over 100 µM and a GI50 (NCI/ADR-RES ovarian) of 1.87 µM. The TGI (NCI/ADR-RES ovarian) was over 100 µM, the GI50 (HT29 colon) was 6.96 µM and the TGI (HT29 colon) was over 100 µM. It also gave a GI50 (HCT-116 colon) of 0.454 µM, a TGI (HCT-116 colon) of 10.9 µM and a GI50 (MCF7 breast) of 1.11 µM. The TGI (MCF7 breast) was over 100 µM, the GI50 (UACC-62 melanoma) was 0.675 µM and the TGI (UACC-62 melanoma) was over 100 µM. For the same molecule, the GI50 (IGROV1 ovarian) was 0.666 µM, the TGI (IGROV1 ovarian) was over 100 µM and the GI50 (DU-145 prostate) was 0.914 µM. For the same molecule, the TGI (DU-145 prostate) was 12.3 µM, the GI50 (ACHN renal) was 0.45 µM and the TGI (ACHN renal) was 3.75 µM. It also gave a GI50 (BT-549 breast) of 2.26 µM, a TGI (BT-549 breast) of over 100 µM and a GI50 (A498 renal) of 0.518 µM. It also gave a TGI (A498 renal) of over 100 µM, a GI50 (NCI-H522 lung) of 0.587 µM and a TGI (NCI-H522 lung) of over 100 µM. The GI50 (MDA-MB-435 melanoma) was over 100 µM, the TGI (MDA-MB-435 melanoma) was over 100 µM and the GI50 (NCI-H322M lung) was 2.06 µM. For the same molecule, the TGI (NCI-H322M lung) was over 100 µM, the GI50 (SF-268 CNS) was 2.02 µM and the TGI (SF-268 CNS) was over 100 µM. For the same molecule, the GI50 (COLO 205 colon) was 0.522 µM, the TGI (COLO 205 colon) was over 100 µM and the GI50 (MALME-3M melanoma) was over 100 µM. For the same molecule, the TGI (MALME-3M melanoma) was over 100 µM.
